From paper PMC4506051, “Pharmacokinetic Profiles of Active Ingredients and Its Metabolites Derived from Rikkunshito, a Ghrelin Enhancer, in Healthy Japanese Volunteers: A Cross-Over, Randomized Study” (PLoS ONE, 2015)
Read-outs that look alike come from different tables or passages of the source.

Columns and labels:
[1] = Exploratory trial: plasma concentration of rikkunshito ingredients after single oral rikkunshito 7.5 g; format: in vivo; conditions: for Plasma concentration, 0 h: 0 h (preadministration), single oral rikkunshito 7.5 g
Summary of the method: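 Healthy volunteers took a single oral rikkunshito dose of 7.5 g. Heparinized forearm blood was drawn at 0, 0.5, 1, 2, 4 and 8 h, with urine pooled pre-dose, 0–4 h and 4–8 h. Analytes were quantified in plasma by LC–MS/MS with internal standards, after solid-phase extraction and, where applied, 2 h β-glucuronidase treatment at 37°C.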

[2] = test system: 5-HT2BR; design: method as in PMID 18439428; conditions: cited from earlier work
[3] = Formation of ingredients derived from rikkunshito in formulation, blood, and urine (S11 Table summary); conditions: after rikkunshito administration, per ingredient in the formulation; for Formation of ingredients: form found in Urine: BQL = below the quantification limit
[4] = test system: cisplatin-induced anorexia model; conditions: cited from earlier work; for Acylated ghrelin level in blood: oral administration, cisplatin-induced anorexia model
[5] = test system: ghrelin secretion; conditions: cited from earlier work
[6] = Exploratory trial: ingredients in β-glucuronidase (enzyme)-treated plasma; format: in vivo, human; conditions: rikkunshito 7.5 g; for concentration at 0.5 h / concentration at 1 h / concentration at 2 h / concentration at 4 h / concentration at 8 h: plasma; for concentration at 0.5 h / concentration at 1 h / concentration at 2 h / concentration at 4 h / concentration at 8 h / Plasma concentration in enzyme-treated plasma, 0 h: β-glucuronidase-treated, mean ± S.D., n = 4; for concentration at 2 h: read-out: Plasma concentration in enzyme-treated plasma, 2 h; for concentration at 4 h: read-out: Plasma concentration in enzyme-treated plasma, 4 h; for concentration at 8 h: read-out: Plasma concentration in enzyme-treated plasma, 8 h; for Plasma concentration in enzyme-treated plasma, 0 h: 0 h (preadministration)
Experimental: (§1) In the first exploratory trial, 20-mL blood samples were collected from the cutaneous vein in the subjects’ forearm via a blood sampling tube that contained heparin at 0 (preadministration), 0.5, 1, 2, 4, and 8 h after a single oral administration of rikkunshito (Lot E24652). The dose of rikkunshito used in this trial was 7.5 g/day, which is the clinical daily dose, to widely explore rikkunshito-derived ingredients that enter the blood. Along with plasma, urine samples were collected at three points: between dinner and bedtime (preadministration), between 0 and 4 h after administration, and between 4 and 8 h after administration. The blood was immediately centrifuged at 1700 ×g for 10 min to obtain plasma. Plasma and urine fractions were stored at −80°C or lower until analysis.
(§2) For quantification of 30 ingredients other than atractylodin and synephrine, 25 µL of standard solution or methanol was added to 500 µL plasma or urine samples followed by mixing. Atractylenolide III or digoxin (IS) solution (50 μL) was added to the solutions followed by mixing. For urine, 400 µL of blank plasma was added to the solutions. Ammonium acetate solution (100 mM, 100 or 400 µL) was added to the solutions followed by mixing. For enzymatic treatment, plasma and urine samples were incubated with β-glucuronidase (100 units in 100 mM ammonium acetate) for 2 h at 37°C. A solid-phase cartridge (OASIS HLB, 30 mg/1cc, Waters) was conditioned with methanol and 10 mM ammonium acetate solution, and the samples were loaded onto the cartridge. The cartridge was washed water : methanol (9:1, v/v), and 1.5 mL of methanol and 30 µL of propylene glycol were added to the cartridge to elute the analytes. The mixtures were dried at 25°C under a stream of nitrogen gas. Furthermore, 100 μL of 10 mM ammonium acetate : methanol (8:2, v/v) was added to the dried samples followed by mixing and sonication. The solutions were filtered (0.22 µm) and followed by injection into the LC–MS/MS system. […] Those analytical conditions are summarized in S2 Table and S3 Table.

[7] = Exploratory trial: amount of rikkunshito ingredients in urine; format: in vivo, human; conditions: mean ± S.D., n = 4; for Amount in urine, 0–4 h: 0–4 h after single oral rikkunshito 7.5 g; for Amount in urine, 4–8 h: 4–8 h after single oral rikkunshito 7.5 g; for Amount in urine, Pre: preadministration (between dinner and bedtime)
Summary of the method: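 Subjects took single oral 7.5 g rikkunshito; urine collected pre-dose and 0–4 h and 4–8 h post-dose, stored at −80 °C or lower. Synephrine quantified by LC–MS/MS after plate cleanup with erythromycin IS; other ingredients after β-glucuronidase (2 h, 37 °C) and HLB solid-phase extraction.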

[8] = test system: 5-HT2CR; design: method as in PMID 18439428; conditions: cited from earlier work
[9] = Exploratory trial: ingredients in β-glucuronidase (enzyme)-treated urine; format: in vivo, human; conditions: β-glucuronidase-treated, mean ± S.D., n = 4
Experimental: as §1, §2

[10] = test system: butyrylcholinesterase; conditions: cited from earlier work
[11] = 1 h after single oral rikkunshito 7.5 g, mean ± S.D., n = 4
[12] = 4 h after single oral rikkunshito 7.5 g, mean ± S.D., n = 4
[13] = 8 h after single oral rikkunshito 7.5 g, mean ± S.D., n = 4
[14] = oral administration at a dose of 4.0 mg/kg
[15] = 0.5 h after single oral rikkunshito 7.5 g, mean ± S.D., n = 4
[16] = 2 h after single oral rikkunshito 7.5 g, mean ± S.D., n = 4

CC1(C)[C@@H](O)CC[C@]2(C)[C@H]3C(=O)C=C4[C@@H]5C[C@@](C)(C(=O)O)CC[C@]5(C)CC[C@@]4(C)[C@]3(C)CC[C@@H]12 [18β-Glycyrrhetinic acid]
Cmax ([1]; human, in vivo): 58.2 ng/mL

COc1ccc(-c2oc3c(OC)c(OC)c(OC)c(OC)c3c(=O)c2OC)cc1OC [Heptamethoxyflavone, 3,3′,4′,5,6,7,8-heptamethoxyflavone]
5-HT2BR inhibitory/antagonistic activity [2]: most potent 5-HT2BR antagonistic activity among all rikkunshito ingredients
Plasma concentration, 0 h ([1]; mean ± S.D., n = 4): BQL
concentration at 0.5 h ([1]; human, plasma, 0.5 h after single oral rikkunshito 7.5 g, mean ± S.D., n = 4, read-out: Plasma concentration, 0.5 h): 0.171 ± 0.18 ng/mL
concentration at 1 h ([1]; human, plasma, 1 h after single oral rikkunshito 7.5 g, mean ± S.D., n = 4): 0.253 ± 0.301 ng/mL
concentration at 2 h ([1]; human, plasma, 2 h after single oral rikkunshito 7.5 g, mean ± S.D., n = 4, read-out: Plasma concentration, 2 h): 0.157 ± 0.187 ng/mL
concentration at 4 h ([1]; human, plasma, 4 h after single oral rikkunshito 7.5 g, mean ± S.D., n = 4, read-out: Plasma concentration, 4 h): 0.0569 ± 0.0821 ng/mL
concentration at 8 h ([1]; human, plasma, 8 h after single oral rikkunshito 7.5 g, mean ± S.D., n = 4, read-out: Plasma concentration, 8 h): 0.00613 ± 0.0123 ng/mL
Formation of ingredients: form found in Blood [3]: Heptamethoxyflavone
Formation of ingredients: form found in Urine [3]: BQL
Acylated ghrelin level in blood [4]: suppressed the decrease of the acylated ghrelin level in blood in a concentration-dependent manner
Known pharmacology activities: ghrelin secretion [5]: Ghrelin secretion promoting activity [14, 15]

O=C(/C=C/c1ccc(O)cc1)c1ccc(O)cc1O [Isoliquiritigenin]
5-HT2BR inhibitory/antagonistic activity [2]: inhibits
5-HT2BR inhibitory/antagonistic activity ([2]; listed as isoliquiritigenin): inhibit
Cmax ([6]; human, oral, β-glucuronidase-treated plasma, four subjects, read-out: C max in enzyme-treated plasma): 0.0872 ng/mL
concentration at 0.5 h ([6]; human, oral): 0.0872 ± 0.0221 ng/mL
concentration at 1 h ([6]; human, oral): 0.0555 ± 0.0187 ng/mL
concentration at 2 h ([6]; human, oral): 0.0606 ± 0.0774 ng/mL
concentration at 4 h ([6]; human, oral): 0.0698 ± 0.0335 ng/mL
concentration at 8 h ([6]; human, oral): 0.0238 ± 0.0354 ng/mL
Plasma concentration in enzyme-treated plasma, 0 h [6]: BQL
Amount in urine, 0–4 h [7]: 741 ± 393 ng
Amount in urine, 4–8 h [7]: 1010 ± 451 ng
Amount in urine, Pre [7]: 0.688 ± 1.38 ng
Plasma concentration, 0 h ([1]; mean ± S.D., n = 4): BQL
Plasma concentration, 1 h [1, 11]: BQL
Plasma concentration, 4 h [1, 12]: BQL
Plasma concentration, 8 h [1, 13]: BQL
concentration at 0.5 h ([1]; human, in vivo, po): 0.0153 ng/mL
concentration at 2 h ([1]; human, in vivo, po): 0.0171 ± 0.0343 ng/mL
Plasma concentration, 0.5 h ([1]; human, in vivo, po, 0.5 h): 0.0153 ± 0.018 ng/mL
5-HT2CR inhibitory activity [8]: inhibits
5-HT2CR inhibitory activity ([8]; listed as isoliquiritigenin): inhibit
Appetite following cisplatin administration [4, 14]: improves decreased appetite
Plasma ghrelin concentration following cisplatin administration [4, 14]: inhibits a decrease in plasma ghrelin concentration
Acylated ghrelin level in blood [4]: suppressed the decrease of the acylated ghrelin level in blood in a concentration-dependent manner
Known pharmacology activities: ghrelin secretion [5]: Ghrelin secretion promoting activity [14, 15]
Amount in enzyme-treated urine, 0–4 h ([9]; 0–4 h after rikkunshito 7.5 g): 3060 ± 348 ng
Amount in enzyme-treated urine, 4–8 h ([9]; 4–8 h after rikkunshito 7.5 g): 5630 ± 2210 ng
Amount in enzyme-treated urine, Pre ([9]; preadministration): 16.0 ± 17.4 ng

O=C1C[C@@H](c2ccc(O)cc2)Oc2cc(O)cc(O)c21 [Naringenin]
5-HT2BR inhibitory/antagonistic activity [2]: most potent 5-HT2BR antagonistic activity among all rikkunshito ingredients
concentration at 0.5 h ([6]; human, oral): 0.311 ± 0.211 ng/mL
concentration at 1 h ([6]; human, oral): 0.261 ± 0.188 ng/mL
concentration at 2 h ([6]; human, oral): 0.351 ± 0.311 ng/mL
concentration at 4 h ([6]; human, oral): 0.861 ± 0.749 ng/mL
concentration at 8 h ([6]; human, oral): 0.156 ± 0.234 ng/mL
Plasma concentration in enzyme-treated plasma, 0 h [6]: BQL
Amount in urine, 0–4 h [7]: BQL
Amount in urine, 4–8 h [7]: 2380 ± 2940 ng
Amount in urine, 4–8 h ([7]; listed as naringenin): 2,380 ng
Amount in urine, Pre [7]: BQL
concentration at 0 h ([1]; human, in vivo, po): 0.378 ± 0.755 ng/mL
concentration at 0.5 h ([1]; human, in vivo, po): 0.0358 ± 0.0715 ng/mL
concentration at 2 h ([1]; human, in vivo, po): 0.0813 ± 0.105 ng/mL
concentration at 4 h ([1]; human, in vivo, po): 0.0715 ± 0.0831 ng/mL
Plasma concentration, 1 h ([1]; in vivo, po): BQL
Plasma concentration, 8 h ([1]; in vivo, po): BQL
Formation of ingredients: form found in Blood [3]: Naringenin Conjugate metabolites of naringenin^a
Formation of ingredients: form found in Urine [3]: Naringenin

COc1ccc(-c2cc(=O)c3c(OC)c(OC)c(OC)c(OC)c3o2)cc1OC [Nobiletin]
5-HT2BR inhibitory/antagonistic activity [2]: most potent 5-HT2BR antagonistic activity among all rikkunshito ingredients
Plasma concentration, 0 h ([1]; mean ± S.D., n = 4): BQL
Plasma concentration, 0.5 h [1, 15]: 0.047 ± 0.0474 ng/mL
Plasma concentration, 1 h [1, 11]: 0.0282 ± 0.0389 ng/mL
Plasma concentration, 2 h [1, 16]: 0.00545 ± 0.0109 ng/mL
Plasma concentration, 4 h [1, 12]: BQL
Plasma concentration, 8 h [1, 13]: BQL
Formation of ingredients: form found in Blood [3]: Nobiletin
Formation of ingredients: form found in Urine [3]: BQL

C=C(CC[C@@H](C(=O)O)[C@H]1[C@H](O)C[C@@]2(C)C3=C(CC[C@]12C)[C@@]1(C)CC[C@H](OC(C)=O)C(C)(C)[C@@H]1CC3)C(C)C [Pachymic acid]
Butyrylcholinesterase inhibition [10]: inhibit butyrylcholinesterase
Known pharmacology activities: ghrelin metabolizing enzyme [10]: Ghrelin metabolizing enzyme inhibitory effect [17]
Plasma concentration, 0 h ([1]; mean ± S.D., n = 4): 0.14 ± 0.184 ng/mL
Plasma concentration, 0.5 h [1, 15]: 0.126 ± 0.185 ng/mL
Plasma concentration, 1 h [1, 11]: 0.127 ± 0.178 ng/mL
Plasma concentration, 2 h [1, 16]: 0.205 ± 0.0765 ng/mL
Plasma concentration, 4 h [1, 12]: 0.0905 ± 0.181 ng/mL
Plasma concentration, 8 h [1, 13]: 0.103 ± 0.129 ng/mL
Formation of ingredients: form found in Blood [3]: Pachymic acid
Formation of ingredients: form found in Urine [3]: BQL
